≈ marks a conversion by molar mass, not a printed value.

The target of one series is T1, human mGluR2 (Homo sapiens, UniProt Q14416).
T1 construct: expressed in transfected cells; host or cells: CHO cells, stably transfected; membranes
As to the kind of experiment: [35S]-GTPγS binding assay, membranes from CHO cells stably expressing human mGluR2. The format is biochemical. To be noted: for Emax: 0.5 h, Emax relative to the maximum glutamate effect, 1 μM glutamate, read-out: Hu GTPgS Median Top Effect; for EC50: allosteric activator activity in presence of 1 μM glutamate, CHO membranes, human mGluR2, read-out: Hu GTPgS EC50. As for the experimental part:
A [^35S]-GTPγS binding assay was used to functionally assay mGluR2 receptor activation. The allosteric activator activity of compounds at the human mGluR2 receptor were measured using a [^35S]-GTPγS binding assay with membranes prepared from CHO cells that stably express the human mGluR2. The assay is based upon the principle that agonists bind to G-protein coupled receptors to stimulate GDP-GTP exchange at the G-protein. Since [^35S]-GTPγS is a non-hydrolyzable GTP analog, it can be used to provide an index of GDP-GTP exchange and, thus, receptor activation. The GTPγS binding assay therefore provides a quantitative measure of receptor activation.
Membranes were prepared from CHO cells stably transfected with human mGluR2. Membranes (30 μg protein) were incubated with test compound (3 nM to 300 μM) for 15 minutes at room temperature prior to the addition of 1 μM glutamate, and incubated for 30 min at 30° C. in 500 μl assay buffer (20 mM HEPES, 100 mM NaCl, 10 mM MgCl2), containing 30 μM GDP and 0.1 nM [^35S]-GTPγS (1250 Ci/mmol). Reactions were carried out in triplicate in 2 ml polypropylene 96-well plates. Reactions were terminated by vacuum filtration using a Packard 96-well harvester and Unifilter-96, GF/B filter microplates. The filter plates were washed 4×1.5 ml with ice-cold wash buffer (10 mM sodium phosphate buffer, pH 7.4). The filter plates were dried and 35 μl of scintillation fluid (Microscint 20) was added to each well. The amount of radioactivity bound was determined by counting plates on the Packard TopCount. Data was analyzed using GraphPad Prism, and EC50 and Emax values (relative to the maximum glutamate effect) were calculated using non-linear regression.
On the technique in general: GTPγS is a poorly hydrolysed GTP analogue; its binding reports G protein activation.

Series [1] in a line: Solubility in pH 7.4 phosphate buffer. It is filed as physicochemical. Particulars: aqueous buffer, thermodynamic from solid, equilibration 24 h at 25° C., HPLC-UV and LC-MSMS. Here is the method:
Solubility was determined in pH 7.4 phosphate buffer after equilibration for 24 h at 25° C. and HPLC-UV and LC-MSMS were used for quantitation.

A further series addresses hERG ion channel (Homo sapiens, UniProt Q12809). The series is described as follows: hERG activity (process of Bridgland-Taylor et al.). The format is cell-based. Here is the method: hERG activity was assessed using the process described by Bridgland-Taylor, M. H., et al, J. Pharm. Tox. Methods 54 (2006) 189-199.
For orientation: hERG is a cardiac potassium channel; its block is linked to QT prolongation.

T1 sequence (Q14416 19-872): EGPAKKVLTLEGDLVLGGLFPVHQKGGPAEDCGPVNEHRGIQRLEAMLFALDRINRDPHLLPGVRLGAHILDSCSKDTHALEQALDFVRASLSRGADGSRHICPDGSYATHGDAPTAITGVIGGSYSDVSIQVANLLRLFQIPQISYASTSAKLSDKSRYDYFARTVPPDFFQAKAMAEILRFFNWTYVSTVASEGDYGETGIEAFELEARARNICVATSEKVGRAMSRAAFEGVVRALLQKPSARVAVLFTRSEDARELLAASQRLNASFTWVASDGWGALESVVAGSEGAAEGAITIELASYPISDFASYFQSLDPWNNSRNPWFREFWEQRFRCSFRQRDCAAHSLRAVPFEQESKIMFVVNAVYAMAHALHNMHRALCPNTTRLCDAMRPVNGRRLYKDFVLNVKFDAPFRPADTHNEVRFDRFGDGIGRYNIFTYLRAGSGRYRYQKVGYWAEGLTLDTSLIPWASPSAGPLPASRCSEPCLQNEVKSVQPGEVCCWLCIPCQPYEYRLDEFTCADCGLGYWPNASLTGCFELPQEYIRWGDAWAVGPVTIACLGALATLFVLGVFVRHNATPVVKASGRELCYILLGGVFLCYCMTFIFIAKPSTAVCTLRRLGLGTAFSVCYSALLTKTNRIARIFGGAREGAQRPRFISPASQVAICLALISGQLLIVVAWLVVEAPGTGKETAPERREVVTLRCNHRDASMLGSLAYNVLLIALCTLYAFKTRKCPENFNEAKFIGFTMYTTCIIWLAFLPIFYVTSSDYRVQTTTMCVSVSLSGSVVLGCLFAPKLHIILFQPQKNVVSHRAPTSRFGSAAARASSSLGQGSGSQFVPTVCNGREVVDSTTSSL
hERG ion channel, sequence (Q12809 whole entry): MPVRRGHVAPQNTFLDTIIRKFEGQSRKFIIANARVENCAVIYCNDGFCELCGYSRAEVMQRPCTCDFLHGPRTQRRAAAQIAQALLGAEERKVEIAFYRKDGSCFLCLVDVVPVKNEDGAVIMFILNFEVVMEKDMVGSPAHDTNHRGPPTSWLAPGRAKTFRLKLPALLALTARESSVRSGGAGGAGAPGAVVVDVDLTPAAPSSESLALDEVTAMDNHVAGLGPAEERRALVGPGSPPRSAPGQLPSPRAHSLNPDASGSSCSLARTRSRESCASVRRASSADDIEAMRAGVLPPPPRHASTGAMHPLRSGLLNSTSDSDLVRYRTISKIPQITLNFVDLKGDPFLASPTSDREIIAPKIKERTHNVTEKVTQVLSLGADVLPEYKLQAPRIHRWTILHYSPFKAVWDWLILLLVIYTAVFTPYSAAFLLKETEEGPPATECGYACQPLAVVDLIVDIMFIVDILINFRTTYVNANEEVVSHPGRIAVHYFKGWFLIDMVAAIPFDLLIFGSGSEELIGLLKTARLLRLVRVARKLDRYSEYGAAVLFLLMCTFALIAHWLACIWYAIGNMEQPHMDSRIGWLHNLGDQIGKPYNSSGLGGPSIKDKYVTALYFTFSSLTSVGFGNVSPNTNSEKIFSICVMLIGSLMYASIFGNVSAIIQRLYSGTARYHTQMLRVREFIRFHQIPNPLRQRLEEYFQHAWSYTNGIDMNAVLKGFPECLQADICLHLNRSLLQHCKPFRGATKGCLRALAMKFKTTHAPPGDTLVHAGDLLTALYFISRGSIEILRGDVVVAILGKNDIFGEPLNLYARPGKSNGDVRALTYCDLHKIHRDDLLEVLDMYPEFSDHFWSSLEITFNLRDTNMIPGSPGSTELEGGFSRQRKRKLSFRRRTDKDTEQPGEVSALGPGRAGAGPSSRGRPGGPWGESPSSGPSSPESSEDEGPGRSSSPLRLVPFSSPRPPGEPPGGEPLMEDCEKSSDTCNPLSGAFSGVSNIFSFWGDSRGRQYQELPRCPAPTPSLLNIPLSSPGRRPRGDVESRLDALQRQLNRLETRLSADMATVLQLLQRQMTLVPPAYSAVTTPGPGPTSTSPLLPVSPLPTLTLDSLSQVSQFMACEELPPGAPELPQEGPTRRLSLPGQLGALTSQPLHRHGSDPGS

For the compound `CC(C)N1Cc2cc(-c3cc(C(N)=O)no3)cc(Cl)c2C1=O` [Example 3], at human mGluR2, the Emax was determined as 117% and the EC50 worked out at 214 nM. Further, the concentration in solution in series [1] (solubility at 24 h) was 21.4 µM (≈ 6.84 µg/mL). Further, at hERG ion channel, the half-inhibitory concentration (IC50) was greater than 33000 nM.

As for `Cc1cc(-c2cc(C(N)=O)no2)cc2c1C(=O)N([C@@H](C)C1CC1)C2` [Example 4, 5-[2-((S)-1-Cyclopropyl-ethyl)-7-methyl-1-oxo-2,3-dihydro-1H-isoindol-5-yl]-isoxazole-3-carboxylic acid amide], at human mGluR2, the Emax was found to be 130% and the EC50 turned out to be 150 nM. For the same compound, the concentration in solution in series [1] (solubility at 24 h) came to 9.53 µM (≈ 3.1 µg/mL). The compound further came in with an IC50 at hERG ion channel greater than 33000 nM.

On to `Cc1cc(-c2cc(C(=O)N(C)C)no2)cc2c1C(=O)N(C(C)C)C2` [Example 5, 5-(2-Isopropyl-7-methyl-1-oxo-2,3-dihydro-1H-isoindol-5-yl)-isoxazole-3-carboxylic acid dimethylamide], for which, on human mGluR2, the Emax was determined as 67% and the EC50 worked out at 425 nM. In series [1], this compound gave a solubility at 24 h of 19.2 µM (≈ 6.29 µg/mL). This compound also gave a concentration for half-maximal inhibition (IC50) on hERG ion channel greater than 33000 nM.

Turning to `CNC(=O)c1cc(-c2cc(C)c3c(c2)CN([C@@H](C)C2CC2)C3=O)on1` [Example 6, 5-[2-((S)-1-Cyclopropyl-ethyl)-7-methyl-1-oxo-2,3-dihydro-1H-isoindol-5-yl]-isoxazole-3-carboxylic acid methylamide], on human mGluR2, the Emax amounted to 110% and the EC50 was 510 nM. In series [1], this compound displayed a solubility at 24 h of 17.5 µM (≈ 5.94 µg/mL). At hERG ion channel, the IC50 was determined as 23000 nM.

On to `C[C@@H](C1CC1)N1Cc2cc(-c3cc(C(N)=O)no3)cc(Cl)c2C1=O` [Example 7, 5-[7-Chloro-2-((S)-1-cyclopropyl-ethyl)-1-oxo-2,3-dihydro-1H-isoindol-5-yl]-isoxazole-3-carboxylic acid amide], for which, at human mGluR2, the Emax worked out at 139% and the EC50 was determined as 230 nM. Besides, the solubility at 24 h in series [1] was 16.6 µM (≈ 5.74 µg/mL). Also, at hERG ion channel, the IC50 was greater than 33000 nM.

Turning to `Cc1cc(-c2cc(C(=O)N(C)C)no2)cc2c1C(=O)N([C@@H](C)C1CC1)C2` [Example 8, 5-[2-((S)-1-Cyclopropyl-ethyl)-7-methyl-1-oxo-2,3-dihydro-1H-isoindol-5-yl]-isoxazole-3-carboxylic acid dimethylamide], at human mGluR2, the Emax came out at 123% and the EC50 came to 115 nM. In series [1], this compound registered a solubility at 24 h of 31.1 µM (≈ 11 µg/mL). This compound also had an IC50 on hERG ion channel greater than 33000 nM.

As for `CC(C)N1Cc2cc(-c3cc(C(=O)N4CCCC4)no3)cc(Cl)c2C1=O` [Example 9, 7-Chloro-2-isopropyl-5-[3-(pyrrolidine-1-carbonyl)-isoxazol-5-yl]-2,3-dihydro-isoindol-1-one], at human mGluR2, the Emax came to 101% and the EC50 is 37 nM. Moreover, in series [1], the solubility at 24 h was 3.57 µM (≈ 1.33 µg/mL). In addition, the IC50 against hERG ion channel was greater than 33000 nM.

With `CC(C)N1Cc2cc(-c3cc(C(=O)N(C)CCO)no3)cc(Cl)c2C1=O` [Example 10, 5-(7-Chloro-2-isopropyl-1-oxo-2,3-dihydro-1H-isoindol-5-yl)-isoxazole-3-carboxylic acid (2-hydroxy-ethyl)-methyl-amide], at human mGluR2, the Emax turned out to be 103% and the EC50 was determined as 618 nM. Further, the solubility at 24 h in series [1] worked out at 54.1 µM (≈ 20.4 µg/mL). Also, on hERG ion channel, the IC50 was greater than 33000 nM.

As for `Cc1cc(-c2cc(C(=O)N(C)C)no2)cc2c1C(=O)N([C@@H](C)C(F)(F)F)C2` [Example 11, 5-[7-M ethyl-1-oxo-2-((S)-2,2,2-trifluoro-1-methyl-ethyl)-2,3-dihydro-1H-isoindol-5-yl]-isoxazole-3-carboxylic acid dimethylamide], on human mGluR2, the Emax amounted to 114% and the concentration for a half-maximal effect (EC50) is 66 nM. The same compound returned a solubility at 24 h in series [1] of 4.35 µM (≈ 1.66 µg/mL). Besides, the IC50 against hERG ion channel was greater than 33000 nM.

For the compound `Cc1cc(-c2cc(C(=O)N(C)C(C)C)no2)cc2c1C(=O)N([C@@H](C)C1CC1)C2` [Example 12, 5-[2-((S)-1-Cyclopropyl-ethyl)-7-methyl-1-oxo-2,3-dihydro-1H-isoindol-5-yl]-isoxazole-3-carboxylic acid isopropyl-methyl-amide], on human mGluR2, the Emax is 100% and the EC50 turned out to be 36 nM. This compound also had a solubility at 24 h in series [1] of 11.2 µM (≈ 4.27 µg/mL). For the same compound, at hERG ion channel, the IC50 was greater than 33000 nM.

Consider `Cc1cc(-c2cc(C(=O)N(C)CCO)no2)cc2c1C(=O)N([C@@H](C)C1CC1)C2` [Example 13, 5-[2-((S)-1-Cyclopropyl-ethyl)-7-methyl-1-oxo-2,3-dihydro-1H-isoindol-5-yl]-isoxazole-3-carboxylic acid (2-hydroxy-ethyl)-methyl-amide], for which, at human mGluR2, the Emax is 78% and the EC50 was 479 nM. Besides, the solubility at 24 h in series [1] was 153 µM (≈ 58.7 µg/mL). At hERG ion channel, this compound displayed an IC50 greater than 33000 nM.

As for `CC(C)N1Cc2cc(-c3cc(C(=O)NC4CCCC4)no3)cc(Cl)c2C1=O` [Example 14, 5-(7-Chloro-2-isopropyl-1-oxo-2,3-dihydro-1H-isoindol-5-yl)-isoxazole-3-carboxylic acid cyclopentylamide], at human mGluR2, the Emax came out at 97% and the EC50 was found to be 60 nM. Also, the solubility at 24 h in series [1] was 3.53 µM (≈ 1.37 µg/mL). Besides, it took 19000 nM to reach half-maximal inhibition against hERG ion channel (IC50).

Take `CC(C)N1Cc2cc(-c3cc(C(=O)N4CCOCC4)no3)cc(Cl)c2C1=O` [Example 15, 7-Chloro-2-isopropyl-5-[3-(morpholine-4-carbonyl)-isoxazol-5-yl]-2,3-dihydro-isoindol-1-one]: at human mGluR2, the Emax turned out to be 100% and the EC50 was 530 nM. Also, in series [1], the solubility at 24 h is 66.3 µM (≈ 25.8 µg/mL). The compound also registered an IC50 on hERG ion channel greater than 33000 nM.

With `Cc1cc(-c2cc(C(=O)N3CCNCC3)no2)cc2c1C(=O)N([C@@H](C)C1CC1)C2` [Example 16, 2-((S)-1-Cyclopropyl-ethyl)-7-methyl-5-[3-(piperazine-1-carbonyl)-isoxazol-5-yl]-2,3-dihydro-isoindol-1-one], on human mGluR2, the Emax is 79% and the EC50 was determined as 664 nM. Also, the solubility at 24 h in series [1] was determined as 435 µM (≈ 172 µg/mL). This compound returned a half-inhibitory concentration (IC50) at hERG ion channel greater than 33000 nM.

`C[C@H](N1Cc2cc(-c3cc(C(=O)N(C)C)no3)cc(Cl)c2C1=O)C(F)(F)F` [Example 17, 5-[7-Chloro-1-oxo-2-((S)-2,2,2-trifluoro-1-methyl-ethyl)-2,3-dihydro-1H-isoindol-5-yl]-isoxazole-3-carboxylic acid dimethylamide]: at human mGluR2, the Emax came to 139% and the EC50 is 84 nM. Besides, the solubility at 24 h in series [1] was 15.5 µM (≈ 6.23 µg/mL). In addition, the IC50 against hERG ion channel is greater than 33000 nM.

Consider `CC(C)N(C)C(=O)c1cc(-c2cc(Cl)c3c(c2)CN([C@@H](C)C2CC2)C3=O)on1` [Example 18, 5-[7-Chloro-2-((S)-1-cyclopropyl-ethyl)-1-oxo-2,3-dihydro-1H-isoindol-5-yl]-isoxazole-3-carboxylic acid isopropyl-methyl-amide], for which, at human mGluR2, the Emax came out at 109% and the EC50 came out at 56 nM. The compound further showed a solubility at 24 h in series [1] of 4.65 µM (≈ 1.87 µg/mL). This compound came in with an IC50 at hERG ion channel greater than 33000 nM.

Consider `C[C@@H](C1CC1)N1Cc2cc(-c3cc(C(=O)N(C)CCO)no3)cc(Cl)c2C1=O` [Example 19, 5-[7-Chloro-2-((S)-1-cyclopropyl-ethyl)-1-oxo-2,3-dihydro-1H-isoindol-5-yl]-isoxazole-3-carboxylic acid (2-hydroxy-ethyl)-methyl-amide], for which, on human mGluR2, the Emax stood at 141% and the EC50 was 443 nM. Also, the solubility at 24 h in series [1] was found to be 273 µM (≈ 110 µg/mL). Moreover, on hERG ion channel, the IC50 was greater than 33000 nM.

Take `C[C@@H](C1CC1)N1Cc2cc(-c3cc(C(=O)N4CCOCC4)no3)cc(Cl)c2C1=O` [Example 20, 7-Chloro-2-((S)-1-cyclopropyl-ethyl)-5-[3-(morpholine-4-carbonyl)-isoxazol-5-yl]-2,3-dihydro-isoindol-1-one]: on human mGluR2, the Emax was 122% and the 50% effective concentration (EC50) came to 85 nM. Further, the concentration in solution in series [1] (solubility at 24 h) came to 5.74 µM (≈ 2.39 µg/mL). The compound also came in with an IC50 against hERG ion channel greater than 33000 nM.

Regarding `C[C@H](N1Cc2cc(-c3cc(C(=O)N4CCOCC4)no3)cc(Cl)c2C1=O)C(F)(F)F` [Example 21, 7-Chloro-5-[3-(morpholine-4-carbonyl)-isoxazol-5-yl]-2-((S)-2,2,2-trifluoro-1-methyl-ethyl)-2,3-dihydro-isoindol-1-one], at human mGluR2, the Emax is 106% and the 50% effective concentration (EC50) was 514 nM. In addition, the solubility at 24 h in series [1] was 9.32 µM (≈ 4.14 µg/mL). This compound displayed an IC50 against hERG ion channel greater than 33000 nM.

The term EC50 denotes the concentration needed to bring the measured effect to its halfway point. In general, solubility refers to the concentration that dissolves in the medium under given conditions. Read a high solubility as a readily soluble substance. The term IC50 denotes the concentration needed to halve the response being measured.

(Values after patent publication US8148372B2 (AstraZeneca AB, priority 2008, dated 2012).)
